Assay results published in ChEMBL document CHEMBL1201862, “PubChem BioAssay data set” (2004).
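A five-concentration, 48-hour dose response in 96-well plates underlies each endpoint, interpolated linearly between surrounding concentrations. GI50 is the concentration that inhibits growth by half.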 Activity calls are given as the source filed them. No stated cut-off is given here; in the data, active = GI50 up to about 1.1 µM and inactive = higher.

What was measured:
Assay in all cases: NCI-60 cell line screen, 48 h
T47D = tested on: T47D
EKVX = tested on: EKVX
A498 = tested on: A498
HCT-15 = tested on: HCT-15
HCC 2998 = tested on: HCC 2998
OVCAR-3 = tested on: OVCAR-3
SN12C = tested on: SN12C
SW-620 = tested on: SW-620
UACC-257 = tested on: UACC-257
NCI-H226 = tested on: NCI-H226
MDA-MB-435 = tested on: MDA-MB-435
HOP-62 = tested on: HOP-62
SK-MEL-2 = tested on: SK-MEL-2
RPMI-8226 = tested on: RPMI-8226
MOLT-4 = tested on: MOLT-4
UACC-62 = tested on: UACC-62
NCI-H460 = tested on: NCI-H460
SK-MEL-5 = tested on: SK-MEL-5
LOX IMVI = tested on: LOX IMVI
SF-268 = tested on: SF-268

Compound	GI50 (T47D)	GI50 (EKVX)	GI50 (A498)	GI50 (HCT-15)	GI50 (HCC 2998)	GI50 (OVCAR-3)	GI50 (SN12C)	GI50 (SW-620)	GI50 (UACC-257)	GI50 (NCI-H226)	GI50 (MDA-MB-435)	GI50 (HOP-62)	GI50 (SK-MEL-2)	GI50 (RPMI-8226)	GI50 (MOLT-4)	GI50 (UACC-62)	GI50 (NCI-H460)	GI50 (SK-MEL-5)	GI50 (LOX IMVI)	GI50 (SF-268)
O=C(Nc1cccc2nsnc12)c1cc2c(cc1Cl)Sc1nccn1S2(=O)=O	2.24 µM (inactive)	5.22 µM (inactive)	13.6 µM (inactive)	5.19 µM	3.38 µM (inactive)	1.68 µM (inactive)	13.6 µM (inactive)	10.5 µM (inactive)	1.81 µM (inactive)	25.9 µM (inactive)	9.62 µM (inactive)	1.78 µM (inactive)	11.2 µM (inactive)	2.26 µM (inactive)	2.95 µM (inactive)	5.33 µM (inactive)	2.4 µM (inactive)	17.9 µM (inactive)	8.43 µM (inactive)	3.62 µM (inactive)
COC1/C=C\C=C(/C)C(=O)NC2=CC(=O)C(NCCCl)=C(CC(C)CC(OC)C(O)C(C)/C=C(/C)C1OC(N)=O)C2=O (stereo not given)	2.36 µM (inactive)	0.592 µM (active)	0.873 µM (active)	0.301 µM	0.101 µM (active)	0.0853 µM (active)	0.069 µM (active)	0.0161 µM (active)	0.0363 µM (active)	0.729 µM (active)	0.0526 µM (active)	0.339 µM (active)	0.147 µM (active)	0.0977 µM (active)	0.052 µM (active)	0.0405 µM (active)	0.0991 µM (active)	0.34 µM (active)	0.0857 µM (active)	0.351 µM (active)
Nc1nc(SCC(=O)c2ccccc2)nc2nc3c(c(-c4ccccc4)c12)CCCC3	40.3 µM (inactive)	63.4 µM (inactive)	19.8 µM (inactive)	> 100 µM	33 µM (inactive)	22.5 µM (inactive)	38.5 µM (inactive)	> 10 µM (inactive)	35 µM (inactive)	18.1 µM (inactive)	32.6 µM (inactive)	41.9 µM (inactive)	27.9 µM (inactive)	> 100 µM (inactive)	> 100 µM (inactive)	23.3 µM (inactive)	32.9 µM (inactive)	49.1 µM (inactive)	24.8 µM (inactive)	18.4 µM (inactive)
c1ccc(/C(=N\Nc2nc3ccccc3s2)c2ccccn2)cc1	< 0.0248 µM (active)	0.41 µM (active)	6.15 µM (inactive)	0.622 µM	14.4 µM (inactive)	0.0948 µM (active)	2.79 µM (inactive)	3.18 µM (inactive)	2.92 µM (inactive)	3.87 µM (inactive)	5.68 µM (inactive)	6.47 µM (inactive)	4.08 µM (inactive)	1.77 µM (inactive)	0.346 µM (active)	3.66 µM (inactive)	1.97 µM (inactive)	2.49 µM (inactive)	4.04 µM (inactive)	3.13 µM (inactive)
COc1cccc(-c2nnc3c(-c4ccccc4)nc4ccccc4n23)c1	4.35 µM (inactive)	55.2 µM (inactive)	6.58 µM (inactive)	7.23 µM	8.49 µM (inactive)	12.7 µM (inactive)	73.1 µM (inactive)	16.4 µM (inactive)	17.9 µM (inactive)	57.3 µM (inactive)	2.91 µM (inactive)	58.1 µM (inactive)	10.1 µM (inactive)	3.45 µM (inactive)	9.53 µM (inactive)	75.7 µM (inactive)	10.3 µM (inactive)	14 µM (inactive)	63.5 µM (inactive)	> 100 µM (inactive)
c1ccc2c(c1)ccn1ccc3c4ccccc4nc-3c21	0.71 µM (active)	0.214 µM (active)	0.0527 µM (active)	0.305 µM	0.191 µM (active)	0.918 µM (active)	0.285 µM (active)	0.202 µM (active)	1.06 µM (active)	0.31 µM (active)	0.362 µM (active)	0.411 µM (active)	1.17 µM (inactive)	0.195 µM (active)	0.0759 µM (active)	1.16 µM (inactive)	0.262 µM (active)	0.454 µM (active)	0.366 µM (active)	0.536 µM (active)
COCC(/N=C\N1CCCc2ccccc2[C@@H]1CCCCl)C(C)(C)C (stereo not given in full)	21.2 µM (inactive)	17.5 µM (inactive)	13.2 µM (inactive)	41.9 µM	13.3 µM (inactive)	0.209 µM (active)	17.1 µM (inactive)	13 µM (inactive)	0.798 µM (active)	5.28 µM (inactive)	11.7 µM (inactive)	15.3 µM (inactive)	17.1 µM (inactive)	2.67 µM (inactive)	1.71 µM (inactive)	10.3 µM (inactive)	35.7 µM (inactive)	1.31 µM (inactive)	8.41 µM (inactive)	> 100 µM (inactive)
C=CCN(c1cc(OCc2ccccc2)c2[nH]cc(C)c2c1)S(C)(=O)=O	18.8 µM (inactive)	24.2 µM (inactive)	29.2 µM (inactive)	> 100 µM	> 100 µM (inactive)	25 µM (inactive)	51.3 µM (inactive)	> 100 µM (inactive)	52.7 µM (inactive)	28.7 µM (inactive)	72.1 µM (inactive)	39 µM (inactive)	41.7 µM (inactive)	39.4 µM (inactive)	33.5 µM (inactive)	22.8 µM (inactive)	76.2 µM (inactive)	52.4 µM (inactive)	> 100 µM (inactive)	46.7 µM (inactive)
